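Cultured in 96-well plates, cells were exposed to test compound for 48 hours across five concentrations. Abbreviation: GI50, concentration required for 50% inhibition of growth.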 The source made the active and inactive calls. Cut-off read from the data, not from the text of the source: active = GI50 up to about 1.1 µM and inactive = higher.
Legend:
Assay in all cases: inhibition of tumour cell growth, NCI panel, 48 h
U-251 = tested on: U-251
Hs-578T = tested on: Hs-578T
BT-549 = tested on: BT-549
HT-29 = tested on: HT-29
KM12 = tested on: KM12
HOP-62 = tested on: HOP-62
DU-145 = tested on: DU-145
SK-OV-3 = tested on: SK-OV-3
A549 = tested on: A549
SF-295 = tested on: SF-295
NCI-H226 = tested on: NCI-H226
HOP-18 = tested on: HOP-18
SK-MEL-2 = tested on: SK-MEL-2
SF-539 = tested on: SF-539
SW-620 = tested on: SW-620
NCI-H23 = tested on: NCI-H23
OVCAR-5 = tested on: OVCAR-5
SK-MEL-5 = tested on: SK-MEL-5
HCT-15 = tested on: HCT-15
XF498 = tested on: XF498
COLO 205 = tested on: COLO 205
DMS-114 = tested on: DMS-114
SNB-19 = tested on: SNB-19
SN12C = tested on: SN12C
SNB-75 = tested on: SNB-75
Malme-3M = tested on: Malme-3M
SK-MEL-28 = tested on: SK-MEL-28
SR = tested on: SR
TK-10 = tested on: TK-10
DMS-273 = tested on: DMS-273
HCT-116 = tested on: HCT-116
786-0 = tested on: 786-0
MDA-MB-435 = tested on: MDA-MB-435
DLD-1 = tested on: DLD-1
M19-MEL = tested on: M19-MEL
MDA-MB-231 = tested on: MDA-MB-231
ACHN = tested on: ACHN
NCI-H522 = tested on: NCI-H522
IGROV-1 = tested on: IGROV-1
KM-20L2 = tested on: KM-20L2
CCRF-CEM = tested on: CCRF-CEM
MCF7 = tested on: MCF7
RPMI-8226 = tested on: RPMI-8226
CAKI-1 = tested on: CAKI-1
LOX IMVI = tested on: LOX IMVI
HCC 2998 = tested on: HCC 2998
K562 = tested on: K562
UO-31 = tested on: UO-31
PC-3 = tested on: PC-3
LXFL 529 = tested on: LXFL 529
MOLT-4 = tested on: MOLT-4
HL-60 = tested on: HL-60
HOP-92 = tested on: HOP-92
OVCAR-3 = tested on: OVCAR-3
A498 = tested on: A498
NCI-H460 = tested on: NCI-H460
M14 = tested on: M14
SF-268 = tested on: SF-268
RXF 393 = tested on: RXF 393
UACC-62 = tested on: UACC-62
OVCAR-4 = tested on: OVCAR-4
EKVX = tested on: EKVX
UACC-257 = tested on: UACC-257
MDA-N = tested on: MDA-N
SNB-78 = tested on: SNB-78
OVCAR-8 = tested on: OVCAR-8
NCI/ADR-RES = tested on: NCI/ADR-RES
T47D = tested on: T47D
RXF 631 = tested on: RXF 631

Measured: GI50

CCc1ccc(NC(=O)NC(=O)c2ccccc2[N+](=O)[O-])cc1Oc1ncc(Cl)cn1
active: U-251 0.0181 µM | Hs-578T < 0.01 µM | BT-549 0.0815 µM | HT-29 0.0179 µM | KM12 < 0.0161 µM | HOP-62 < 0.0154 µM | DU-145 0.0578 µM | SK-OV-3 < 0.0164 µM | A549 0.0213 µM | SF-295 < 0.0222 µM | NCI-H226 0.0151 µM | SK-MEL-2 < 0.01 µM | SF-539 0.0137 µM | SW-620 0.0168 µM | NCI-H23 < 0.0174 µM | OVCAR-5 < 0.0301 µM | SK-MEL-5 < 0.0139 µM | XF498 < 0.01 µM | COLO 205 0.0304 µM | DMS-114 17.4 nM | SNB-19 0.0495 µM | SN12C 0.0308 µM | SNB-75 < 0.01 µM | Malme-3M < 0.01 µM | SK-MEL-28 0.37 µM | SR 0.0247 µM | DMS-273 < 0.0149 µM | HCT-116 0.0331 µM | 786-0 0.0158 µM | MDA-MB-435 < 0.01 µM | DLD-1 < 0.0192 µM | M19-MEL < 0.0275 µM | MDA-MB-231 0.0376 µM | ACHN 0.0386 µM | NCI-H522 0.0135 µM | IGROV-1 < 0.0165 µM | KM-20L2 0.0148 µM | CCRF-CEM 0.0213 µM | MCF7 < 0.01 µM | RPMI-8226 < 0.0159 µM | CAKI-1 < 0.01 µM | LOX IMVI 0.0189 µM | HCC 2998 0.027 µM | K562 < 0.0145 µM | UO-31 < 0.01 µM | PC-3 < 0.01 µM | LXFL 529 < 0.0185 µM | MOLT-4 0.0247 µM | HL-60 < 13 nM | HOP-92 < 0.01 µM | OVCAR-3 0.0147 µM | A498 < 0.01 µM | NCI-H460 0.0158 µM | M14 0.0231 µM | SF-268 0.0287 µM | RXF 393 < 0.01 µM | UACC-62 < 17.7 nM | UACC-257 < 0.01 µM | MDA-N < 10 nM | SNB-78 0.0279 µM | OVCAR-8 0.0264 µM
inactive: HOP-18 > 100 µM | TK-10 1.96 µM | OVCAR-4 2.61 µM | EKVX 7.06 µM
0.0141 µM: HCT-15

COc1ccc(/C=C\c2cc(OC)c(OC)c(OC)c2)cc1OC(=O)C(N)CCC(=O)O (stereo not drawn)
inactive: HT-29 1.43 µM
active: KM12 0.000131 µM | A549 0.000802 µM | NCI-H226 0.000632 µM | HOP-18 0.0764 µM | SF-539 8.22e-05 µM | SW-620 0.00015 µM | NCI-H23 0.000114 µM | XF498 < 1e-05 µM | DMS-114 < 0.01 nM | Malme-3M 0.000105 µM | SK-MEL-28 0.000188 µM | SR 0.000208 µM | DMS-273 < 1e-05 µM | HCT-116 0.00015 µM | 786-0 0.000764 µM | DLD-1 < 1e-05 µM | M19-MEL < 1e-05 µM | NCI-H522 8.51e-05 µM | KM-20L2 0.00252 µM | CCRF-CEM 0.000117 µM | MCF7 0.00229 µM | RPMI-8226 0.0001 µM | LXFL 529 < 1e-05 µM | MOLT-4 0.000135 µM | HL-60 0.075 nM | OVCAR-3 0.00011 µM | NCI-H460 0.000133 µM | M14 0.00016 µM | UACC-62 0.0802 nM | UACC-257 0.000465 µM | MDA-N 0.05 nM | SNB-78 < 1e-05 µM | OVCAR-8 0.000143 µM

O=c1cc(-c2ccccc2)oc2ccc(Cl)cc12 [6-CHLOROFLAVONE]
inactive: U-251 37.7 µM | Hs-578T > 44.8 µM | BT-549 > 100 µM | HT-29 > 100 µM | KM12 > 64.7 µM | HOP-62 44.7 µM | DU-145 > 56.6 µM | SK-OV-3 68.2 µM | A549 > 100 µM | SF-295 44.2 µM | NCI-H226 > 84.7 µM | HOP-18 > 100 µM | SK-MEL-2 > 84.7 µM | SF-539 37.7 µM | SW-620 > 92.7 µM | NCI-H23 49.9 µM | OVCAR-5 > 100 µM | SK-MEL-5 > 100 µM | XF498 37.2 µM | NCI/ADR-RES 57.4 µM | COLO 205 > 61.8 µM | DMS-114 49900 nM | SNB-19 29.6 µM | SN12C > 69.8 µM | SNB-75 26.8 µM | Malme-3M 56.9 µM | SK-MEL-28 > 65.6 µM | SR 20.7 µM | TK-10 50 µM | DMS-273 72.9 µM | HCT-116 46.6 µM | 786-0 33.3 µM | MDA-MB-435 > 41.5 µM | DLD-1 > 100 µM | M19-MEL > 100 µM | MDA-MB-231 18.1 µM | ACHN 61.2 µM | NCI-H522 64.3 µM | IGROV-1 > 82 µM | KM-20L2 > 100 µM | CCRF-CEM > 77.8 µM | MCF7 20.7 µM | RPMI-8226 > 73.5 µM | CAKI-1 > 62.1 µM | LOX IMVI > 56.4 µM | HCC 2998 > 56.4 µM | K562 > 74.6 µM | UO-31 37.4 µM | PC-3 > 52.5 µM | LXFL 529 > 100 µM | MOLT-4 > 74.6 µM | HL-60 > 46500 nM | HOP-92 22.8 µM | OVCAR-3 > 100 µM | A498 > 68.5 µM | NCI-H460 > 100 µM | T47D 19.6 µM | M14 65.5 µM | SF-268 31.8 µM | RXF 393 31.4 µM | UACC-62 > 67100 nM | OVCAR-4 > 44.3 µM | EKVX 17.4 µM | UACC-257 > 54.5 µM | MDA-N > 41400 nM | SNB-78 48.2 µM | OVCAR-8 > 86.5 µM
> 100 µM: HCT-15

Nc1ccc(C(=O)NN2C(=O)C(Cl)C2c2cc(Br)cc(Br)c2O)cc1 (stereo not drawn)
inactive: U-251 11.1 µM | HT-29 34.9 µM | KM12 22.8 µM | HOP-62 12.1 µM | SK-OV-3 11.2 µM | A549 14.3 µM | SF-295 10.3 µM | NCI-H226 5.82 µM | HOP-18 3.56 µM | SK-MEL-2 10.6 µM | SF-539 12.8 µM | SW-620 16.7 µM | NCI-H23 12.4 µM | OVCAR-5 40.2 µM | SK-MEL-5 16.5 µM | XF498 14.1 µM | COLO 205 48.1 µM | DMS-114 4220 nM | SNB-19 34.1 µM | SNB-75 18 µM | Malme-3M 17.3 µM | SK-MEL-28 22.9 µM | SR 24.3 µM | TK-10 32.2 µM | DMS-273 6.4 µM | HCT-116 6.79 µM | 786-0 8.3 µM | DLD-1 13.3 µM | M19-MEL 11.9 µM | ACHN 5.74 µM | NCI-H522 6.75 µM | IGROV-1 13.3 µM | KM-20L2 33.3 µM | CCRF-CEM 5.53 µM | RPMI-8226 > 100 µM | CAKI-1 3.66 µM | LOX IMVI 8.85 µM | HCC 2998 16.8 µM | UO-31 3.34 µM | LXFL 529 20.1 µM | MOLT-4 4.89 µM | HL-60 1310 nM | HOP-92 24.2 µM | OVCAR-3 2.43 µM | NCI-H460 3.4 µM | M14 12.8 µM | SF-268 3.98 µM | RXF 393 13.3 µM | UACC-62 4440 nM | OVCAR-4 10.3 µM | EKVX 4.62 µM | UACC-257 7.67 µM | SNB-78 63.8 µM | OVCAR-8 14.7 µM
3.78 µM: HCT-15

Clc1ccc2c(c1)[nH]c1c2nc2ccccn21
inactive: HT-29 15.2 µM | KM12 16.9 µM | SK-OV-3 27.3 µM | A549 25.1 µM | NCI-H226 25.4 µM | SF-539 15.9 µM | SW-620 24.8 µM | NCI-H23 21.6 µM | SNB-19 19.4 µM | SK-MEL-28 17.4 µM | SR 17.1 µM | TK-10 16.8 µM | HCT-116 19.3 µM | 786-0 18.9 µM | NCI-H522 19.8 µM | IGROV-1 40.8 µM | KM-20L2 14.7 µM | RPMI-8226 14.7 µM | RXF 631 22.5 µM | UO-31 18.4 µM | A498 24.2 µM | M14 20.2 µM | SF-268 19 µM | UACC-257 16.7 µM | SNB-78 23.6 µM
